In one data set the test system is SRS-A release. The experiment in a line: Inhibition of SRS-A (leukotriene) release from ovalbumin-challenged sensitized guinea pig lung fragments. The class given is cell-based. To be noted: for inhibition at 10 µM / inhibition at 30 µM / inhibition at 3 µM / inhibition at 1 µM: Cavia porcellus, read-out: Percent Inhibition of SRS-A Release. The protocol: Male, Hartley guinea pigs, usually 1-2 weeks old were sensitized with respect to ovalbumin by intraperitoneal administration of 0.15 ml hyperimmune serum obtained from guinea pigs actively sensitized against ovalbumin. […] Poorly perfused and bloody areas were discarded. Normal lung was cut into 1 mm cubes with a McIlwain tissue chopper, washed with Krebs' solution and divided into 400 mg aliquots. The fragmented tissue was then incubated at 37° C. for 15 minutes in Krebs' solution containing indomethacin to optimize SRS-A release and an appropriate concentration of experimental drug. Antigen (ovalbumin) was then added to make a final concentration of 1×10^-5 g/ml. Fifteen minutes later, the incubation medium was decanted and centrifuged at 3,000 g at 4° C. for 5 minutes. […] Release of SRS-A in the presence of an experimental drug was compared to a control sample and the results expressed as percent inhibition of SRS-A release.

Data set [1] in a line: pKa using 66% aqueous dimethylformamide solution. It is filed as physicochemical. The protocol:
The precipitate was then dissolved in a solution of 1 L of water and 50 g of sodium hydroxide and then heated to about 60° for about ten minutes. Slowly, 50 g of sodium dithionite were added with stirring. After the addition, the reaction solution was kept at about 60° for about three hours. An orange precipitate was formed and the reaction was then allowed to cool to room temperature and sodium chloride was added. The orange solid, which was filtered and then dried, weighed 19 g (70% yield).
The preparation of 2-methyl-5-amino-8-hydroxyquinoline follows the procedure outlined in Example 1, except 15.9 g of 2-methyl-8-hydroxyquinoline were used as the starting material. […] The mass spectrum indicated the expected molecular ion at m/e=174. The pKa was 5.00, using 66% aqueous dimethylformamide solution and the apparent molecular weight was 188.

Setting [2] is: 1 × 10^-5 M, sensitized guinea pig lung fragments, ovalbumin challenge, indomethacin present.
Setting [3] is: 3 × 10^-5 M, sensitized guinea pig lung fragments, ovalbumin challenge, indomethacin present.
[4] abbreviates: 3 × 10^-6 M, sensitized guinea pig lung fragments, ovalbumin challenge, indomethacin present.
The mark [5] stands for this setting: 1 × 10^-6 M, sensitized guinea pig lung fragments, ovalbumin challenge, indomethacin present.

This is an account of results in patent publication US4492704A, “Quinoline quinones and anti-asthmatic use thereof” (Eli Lilly and Company, priority 1982, dated 1985).

Where two headings read alike, the source gives them in different places.

What is called inhibition is the change of the read-out against control, counted positive when it falls. Take `O=C1C(Nc2cccc(C(F)(F)F)c2)=CC(=O)c2ncccc21` [Example 24, 6-(3-triflouromethylanilino)quinoline-5,8-quinone]: in the data set with SRS-A release (setting [2]), the inhibition at 10 µM was 53%. `CSc1cccc(NC2=CC(=O)c3ncccc3C2=O)c1` [6-(3-methylthioanilino)quinoline-5,8-quinone]: in the data set on SRS-A release (setting [3]), the inhibition at 30 µM is 55%. The inhibition at 3 µM in the data set with SRS-A release (setting [4]) amounted to 16%. For `COc1ccccc1NC1=CC(=O)c2ncccc2C1=O` [6-(2-methoxyanilino)quinoline-5,8-quinone] the same measures were 38% and 0%. For `CCCN(C)C1=CC(=O)c2ncccc2C1=O` [6-methylpropylaminoquinoline-5,8-quinone], the “Percent Inhibition of SRS-A Release” value with SRS-A release (setting [3]) came out at 61%. With `CCN(C1=CC(=O)c2ncccc2C1=O)c1ccccc1` [Example 15, 6-(N--ethylanilino)quinoline-5,8-quinone], the inhibition at 10 µM in the data set with SRS-A release (setting [2]) is 53%.

`Cc1ccc2c(n1)C(=O)C=C(Nc1ccccc1)C2=O` [Example 11, 2-methyl-6-anilinoquinoline-5,8-quinone]: the inhibition at 10 µM in the data set with SRS-A release (setting [2]) was 55%. In the case of `CC(C)NC1=CC(=O)c2ncccc2C1=O` [6-isopropylaminoquinoline-5,8-quinone], in the data set with SRS-A release (setting [3]), the inhibition at 30 µM is 28%. With `O=C1C(Nc2ccc(O)cc2)=CC(=O)c2ncccc21` [Example 13, 6-(4-hydroxyanilino)quinoline-5,8-quinone], the inhibition at 10 µM in the data set on SRS-A release (setting [2]) was found to be 58%. The same measure, in the same setting: with `CN(C)CCNC1=CC(=O)c2ncccc2C1=O` [Example 18, 6-dimethylaminoethylaminoquinoline-5,8-quinone] the figure was 40%.

As to `CNC1=CC(=O)c2ncccc2C1=O` [6-methylaminoquinoline-5,8-quinone], in the data set on SRS-A release (setting [2]), the inhibition at 10 µM was 28%. In the data set on SRS-A release (setting [3]), the inhibition at 30 µM was 51%.

Regarding `O=C1C(NC2CC2)=CC(=O)c2ncccc21` [6-cyclopropylaminoquinoline-5,8-quinone], the inhibition at 30 µM in the data set with SRS-A release (setting [3]) was 48%. Consider `O=C1C(NC2CCCCC2)=CC(=O)c2ncccc21` [Example 14, 6-cyclohexylaminoquinoline-5,8-quinone], for which the inhibition at 10 µM with SRS-A release (setting [2]) is 53%. Also, in the data set on SRS-A release (setting [5]), the inhibition at 1 µM stood at 0%. `COc1cccc(NC2=CC(=O)c3ncccc3C2=O)c1` [Example 21, 6-(3-methoxyanilino)quinoline-5,8-quinone]: the inhibition at 10 µM in the data set with SRS-A release (setting [2]) was determined as 72%.

In the case of `O=C1C(Nc2ccccc2F)=CC(=O)c2ncccc21` [Example 17, 6-(2-flouroanilino)quinoline-5,8-quinone], the inhibition at 10 µM in the data set on SRS-A release (setting [2]) was determined as 71%. Also, in the data set with SRS-A release (setting [5]), the inhibition at 1 µM was 0%.

As to `O=C1C(Nc2cccc(Br)c2)=CC(=O)c2ncccc21` [Example 23, 6-(3-bromoanilino)quinoline-5,8-quinone], the inhibition at 10 µM with SRS-A release (setting [2]) stood at 45%.

For the molecule `CN(C1=CC(=O)c2ncccc2C1=O)c1ccccc1` [6-(N--methylanilino)quinoline-5,8-quinone], the inhibition at 10 µM with SRS-A release (setting [2]) came to 80%. In addition, in the data set with SRS-A release (setting [5]), the inhibition at 1 µM was found to be 16%. For the same molecule, in the data set with SRS-A release (setting [4]), the inhibition at 3 µM came out at 27%. Turning to `O=C1C(Nc2cccc(F)c2)=CC(=O)c2ncccc21` [Example 19, 6-(3-flouroanilino)quinoline-5,8-quinone], in the data set with SRS-A release (setting [2]), the inhibition at 10 µM came to 76%. For the same molecule, the inhibition at 1 µM in the data set with SRS-A release (setting [5]) was 13%. In the data set on SRS-A release (setting [3]), the inhibition at 30 µM was found to be 94%.

As to `Cc1ccccc1NC1=CC(=O)c2ncccc2C1=O` [6-(2-methylanilino)quinoline-5,8-quinone], the inhibition at 30 µM in the data set with SRS-A release (setting [3]) was found to be 80%. Further, the inhibition at 3 µM with SRS-A release (setting [4]) was found to be 17%. On to `O=C1C(Nc2ccc(Cl)cc2)=CC(=O)c2ncccc21` [6-(4-chloroanilino)quinoline-5,8-quinone], for which, in the data set with SRS-A release (setting [2]), the inhibition at 10 µM worked out at 23%. For the same molecule, in the data set on SRS-A release (setting [3]), the inhibition at 30 µM turned out to be 68%.

For `CC(=O)c1cccc(NC2=CC(=O)c3ncccc3C2=O)c1` [Example 25, 6-(3-acetylanilino)quinoline-5,8-quinone], in the data set on SRS-A release (setting [4]), the inhibition at 3 µM came to 36%.

With `O=C1C(N2CCCCC2)=CC(=O)c2ncccc21` [6-piperidinylquinoline-5,8-quinone], the inhibition at 10 µM in the data set on SRS-A release (setting [2]) turned out to be 68%. Consider `O=C1C(Nc2ccccc2Cl)=CC(=O)c2ncccc21` [6-(2-chloroanilino)quinoline-5,8-quinone], for which the inhibition at 1 µM in the data set with SRS-A release (setting [5]) was 24%. Further, the inhibition at 30 µM in the data set on SRS-A release (setting [3]) was 78%. Further, the inhibition at 3 µM with SRS-A release (setting [4]) was 23%. By pKa is commonly meant the negative logarithm of the acid dissociation constant. Lower therefore signals a group that gives up its proton readily. Regarding `COc1cc(N)c2ncccc2c1N` [Example 1, 5,8-diamino-6-methoxyquinoline], the pKa in data set [1] turned out to be 5.08. As to `C=CCNC1=CC(=O)c2ncccc2C1=O` [6-(2-propenyl)aminoquinoline-5,8-quinone], the inhibition at 10 µM with SRS-A release (setting [2]) was 53%. `O=C1C(Nc2ccc([N+](=O)[O-])cc2)=CC(=O)c2ncccc21` [Example 9, 6-(4-nitroanilino)quinoline-5,8-quinone]: the inhibition at 10 µM in the data set with SRS-A release (setting [2]) was found to be 41%.

Turning to `O=C1C(Nc2ccccc2C(F)(F)F)=CC(=O)c2ncccc21` [6-(2-trifluoromethylanilino)quinoline-5,8-quinone], the inhibition at 10 µM in the data set on SRS-A release (setting [2]) was found to be 52%. With `COc1ccc(NC2=CC(=O)c3ncccc3C2=O)cc1` [Example 8, 6-(4-methoxyanilino)quinoline-5,8-quinone], the inhibition at 10 µM with SRS-A release (setting [2]) worked out at 32%. On to `CCCN(C1=CC(=O)c2ncccc2C1=O)c1ccccc1` [6-(N--propylanilino)quinoline-5,8-quinone], for which the inhibition at 10 µM with SRS-A release (setting [2]) was determined as 28%. For the same molecule, the inhibition at 30 µM in the data set with SRS-A release (setting [3]) was 39%. For the molecule “6-(flouroanilino)quinoline-5,8-quinone [Example 16]”, the “Percent Inhibition of SRS-A Release” value with SRS-A release (setting [2]) amounted to 39%. For `O=C1C(Nc2cccc3c2CCCC3)=CC(=O)c2ncccc21` [Example 12, 6-(1-amino-5,6,7,8-tetrahydronaphthalene)quinoline-5,8-quinone], the inhibition at 10 µM in the data set on SRS-A release (setting [2]) came out at 23%.

With `C=CCN(C1=CC(=O)c2ncccc2C1=O)c1ccccc1` [6-[N--(2-propenyl)anilino]quinoline-5,8-quinone], the inhibition at 10 µM in the data set with SRS-A release (setting [2]) came to 41%. Still for that read-out and setting: the result for `Cc1cccc(NC2=CC(=O)c3ncccc3C2=O)c1` [Example 20, 6-(3-methylanilino)quinoline-5,8-quinone] reads 69%. `Cc1ccc2c(N)ccc(O)c2n1` [Example 2, 2-methyl-5-amino-8-hydroxyquinoline] yielded a pKa in data set [1] of 5.

For the molecule `O=C1C(N2CCOCC2)=CC(=O)c2ncccc21` [6-morpholinylquinoline-5,8-quinone], the inhibition at 10 µM with SRS-A release (setting [2]) amounted to 28%. Also, the inhibition at 30 µM in the data set on SRS-A release (setting [3]) stood at 63%.

Regarding `O=C1C(Nc2cccc(Cl)c2)=CC(=O)c2ncccc21` [Example 22, 6-(3-chloroanilino)quinoline-5,8-quinone], the inhibition at 10 µM in the data set with SRS-A release (setting [2]) was 71%. On to `O=C1C(Nc2ccccc2)=CC(=O)c2ncccc21` [7,10, 6-anilinoquinoline-5,8-quinone], for which, in the data set on SRS-A release, the inhibition at 1 µM was determined as 28%, the inhibition at 3 µM worked out at 54%, the inhibition at 10 µM was 79% and the inhibition at 30 µM worked out at 86%.
